Measured values published in patent US5534508A, “Cephem compounds and antimicrobial agents” (Katayama Seiyakusyo Co., Ltd., priority 1993, dated 1996).
In brackets after ≈: the same amount, converted by molar mass.

How the values were obtained:
Type in all cases: cell-based
S. aureus 209p JC-1 = assay: MIC against standard strains (Table 1), S. aureus 209p JC-1; settings: Staphylococcus aureus, Muller-Hinton agar, overnight 37° C., read-out: MIC (minimum growth inhibitory concentration)
Description: (§1) The minimum growth inhibitory concentration (MIC, μg/ml) of the compounds for each of the 25 standard laboratory strains (standard strains) shown in Table 1 was determined in accordance with the standard method of the Japan Chemotherapical Society (Chemotherapy, 29, 76-79 (1981) under "Re-revision of the measuring methods of minimum growth inhibitory concentration (MIC)").
(§2) That is, by using each test strain cultured overnight at 37° C. in a Muller-Hinton broth, there was prepared a bacterial solution with a cell density of 1×10^6 CFU/ml in the same broth. The bacterial solution was inoculated into the Muller-Hinton agar media each containing respectively one test agent (i.e., compound) and, after overnight incubation at 37° C., the minimum concentration that inhibited growth of the bacteria was determined and expressed as MIC.
(§3) Staphylococcus aureus 167 and Staphylococcus aureus 195 used in the test were MRSA. CTM (cefotiam) and FMOX (flomoxef) were used as the control agents.

S. aureus Smith = assay: MIC against standard strains (Table 1), S. aureus Smith; settings: Staphylococcus aureus, Muller-Hinton agar, overnight 37° C., read-out: MIC (minimum growth inhibitory concentration)
Description: as §1, §2, §3

S. aureus 167 = assay: MIC against standard strains (Table 1), S. aureus 167 (MRSA); settings: Staphylococcus aureus, Muller-Hinton agar, overnight 37° C., read-out: MIC (minimum growth inhibitory concentration)
Description: as §1, §2, §3

S. aureus 195 = assay: MIC against standard strains (Table 1), S. aureus 195 (MRSA); settings: Staphylococcus aureus, Muller-Hinton agar, overnight 37° C., read-out: MIC (minimum growth inhibitory concentration)
Description: as §1, §2, §3

S. epidemidis IAM 1296 = assay: MIC against standard strains (Table 1), S. epidemidis IAM 1296; settings: Muller-Hinton agar, overnight 37° C., read-out: MIC (minimum growth inhibitory concentration)
Description: as §1, §2, §3

M. luteus ATCC 9341 = assay: MIC against standard strains (Table 1), M. luteus ATCC 9341; settings: Micrococcus luteus, ATCC9341, Muller-Hinton agar, overnight 37° C., read-out: MIC (minimum growth inhibitory concentration)
Description: as §1, §2, §3

B. subtilis ATCC 6633 = assay: MIC against standard strains (Table 1), B. subtilis ATCC 6633; settings: Bacillus subtilis, ATCC6633, Muller-Hinton agar, overnight 37° C., read-out: MIC (minimum growth inhibitory concentration)
Description: as §1, §2, §3

E. coli JC-2 = assay: MIC against standard strains (Table 1), E. coli JC-2; settings: Escherichia coli, JC2, Muller-Hinton agar, overnight 37° C., read-out: MIC (minimum growth inhibitory concentration)
Description: as §1, §2, §3

E. coli CSH2(RK1) = assay: MIC against standard strains (Table 1), E. coli CSH2(RK1); settings: Escherichia coli, read-out: MIC (minimum growth inhibitory concentration)
Description: as §1, §2, §3

E. coli CSH2(RE45) = assay: MIC against standard strains (Table 1), E. coli CSH2(RE45); settings: Escherichia coli, read-out: MIC (minimum growth inhibitory concentration)
Description: as §1, §2, §3

K. pneuminiae IFO 3317 = assay: MIC against standard strains (Table 1), K. pneuminiae IFO 3317; settings: Muller-Hinton agar, overnight 37° C., read-out: MIC (minimum growth inhibitory concentration)
Description: as §1, §2, §3

K. pneuminiae No. 42 = assay: MIC against standard strains (Table 1), K. pneuminiae No. 42; settings: Muller-Hinton agar, overnight 37° C., read-out: MIC (minimum growth inhibitory concentration)
Description: as §1, §2, §3

P. mirabilis IFO 3849 = assay: MIC against standard strains (Table 1), P. mirabilis IFO 3849; settings: Proteus mirabilis, IFO3849, Muller-Hinton agar, overnight 37° C., read-out: MIC (minimum growth inhibitory concentration)
Description: as §1, §2, §3

P. vulugaris OX-19 = assay: MIC against standard strains (Table 1), P. vulugaris OX-19; settings: Muller-Hinton agar, overnight 37° C., read-out: MIC (minimum growth inhibitory concentration)
Description: as §1, §2, §3

M. morganii IFO 3848 = assay: MIC against standard strains (Table 1), M. morganii IFO 3848; settings: Morganella morganii, IFO3848, Muller-Hinton agar, overnight 37° C., read-out: MIC (minimum growth inhibitory concentration)
Description: as §1, §2, §3

S. marcescens IAM 1184 = assay: MIC against standard strains (Table 1), S. marcescens IAM 1184; settings: Serratia marcescens, IAM1184, Muller-Hinton agar, overnight 37° C., read-out: MIC (minimum growth inhibitory concentration)
Description: as §1, §2, §3

S. marcescens No. 16-2 = assay: MIC against standard strains (Table 1), S. marcescens No. 16-2; settings: Serratia marcescens, NO.162, Muller-Hinton agar, overnight 37° C., read-out: MIC (minimum growth inhibitory concentration)
Description: as §1, §2, §3

E. cloacae ATCC 13407 = assay: MIC against standard strains (Table 1), E. cloacae ATCC 13407; settings: Enterobacter cloacae, ATCC13407, Muller-Hinton agar, overnight 37° C., read-out: MIC (minimum growth inhibitory concentration)
Description: as §1, §2, §3

E. cloacae Nek39 = assay: MIC against standard strains (Table 1), E. cloacae Nek39; settings: Enterobacter cloacae, Muller-Hinton agar, overnight 37° C., read-out: MIC (minimum growth inhibitory concentration)
Description: as §1, §2, §3

C. freundii ATCC 8090 = assay: MIC against standard strains (Table 1), C. freundii ATCC 8090; settings: Citrobacter freundii, ATCC8090, Muller-Hinton agar, overnight 37° C., read-out: MIC (minimum growth inhibitory concentration)
Description: as §1, §2, §3

P. aeruginosa NCTC 10490 = assay: MIC against standard strains (Table 1), P. aeruginosa NCTC 10490; settings: Pseudomonas aeruginosa, NCTC10490, Muller-Hinton agar, overnight 37° C., read-out: MIC (minimum growth inhibitory concentration)
Description: as §1, §2, §3

P. aeruginosa AKR17 = assay: MIC against standard strains (Table 1), P. aeruginosa AKR17; settings: Pseudomonas aeruginosa, Muller-Hinton agar, overnight 37° C., read-out: MIC (minimum growth inhibitory concentration)
Description: as §1, §2, §3

P. cepacia CN 9113 = assay: MIC against standard strains (Table 1), P. cepacia CN 9113; settings: Burkholderia cepacia, CN9113, Muller-Hinton agar, overnight 37° C., read-out: MIC (minimum growth inhibitory concentration)
Description: as §1, §2, §3

A. faecalis ATCC 3750 = assay: MIC against standard strains (Table 1), A. faecalis ATCC 3750; settings: Alcaligenes faecalis, ATCC3750, Muller-Hinton agar, overnight 37° C., read-out: MIC (minimum growth inhibitory concentration)
Description: as §1, §2, §3

A. calcoaceticos T59 = assay: MIC against standard strains (Table 1), A. calcoaceticos T59; settings: Muller-Hinton agar, overnight 37° C., read-out: MIC (minimum growth inhibitory concentration)
Description: as §1, §2, §3

clinically isolated MRSA = assay: Antibacterial potency against clinically isolated MRSA (47 strains); settings: Staphylococcus aureus
Description: A test on the antibacterial potency against clinically isolated MRSA was conducted in the following way.
That is, using 47 strains of clinically isolated MRSA, MIC was determined for each of the test strains in accordance with the standard method of the Japan Chemotherapical Society as in Test Example 1, and the minimum growth inhibitory concentration which inhibited growth of 50% of the strains tested was expressed as MIC50 (μg/ml), and the minimum growth inhibitory concentration which inhibited growth of 90% of the strains tested was expressed as MIC90 (μg/ml).
In this test, FMOX was used as the control agent.

Compound | MIC (S. aureus 209p JC-1) [µg/mL] | MIC (S. aureus Smith) [µg/mL] | MIC (S. aureus 167) [µg/mL] | MIC (S. aureus 195) [µg/mL] | MIC (S. epidemidis IAM 1296) [µg/mL] | MIC (M. luteus ATCC 9341) [µg/mL] | MIC (B. subtilis ATCC 6633) [µg/mL] | MIC (E. coli JC-2) [µg/mL] | MIC (E. coli CSH2(RK1)) [µg/mL] | MIC (E. coli CSH2(RE45)) [µg/mL] | MIC (K. pneuminiae IFO 3317) [µg/mL] | MIC (K. pneuminiae No. 42) [µg/mL] | MIC (P. mirabilis IFO 3849) [µg/mL] | MIC (P. vulugaris OX-19) [µg/mL] | MIC (M. morganii IFO 3848) [µg/mL] | MIC (S. marcescens IAM 1184) [µg/mL] | MIC (S. marcescens No. 16-2) [µg/mL] | MIC (E. cloacae ATCC 13407) [µg/mL] | MIC (E. cloacae Nek39) [µg/mL] | MIC (C. freundii ATCC 8090) [µg/mL] | also measured
NC(=O)c1cc[n+](C/C=C/C2=C(C(=O)[O-])N3C(=O)[C@@H](NC(=O)/C(=N\O)c4csc(N)n4)[C@H]3SC2)cc1 [Compound 19, 7β-[2-(2-aminothiazol-4-yl)-2-syn-hydroxyiminoacetamido]-3-[(E)-3-(4-carbamoylpyridinio)-1-propenyl]-3-cephem-4-carboxylate] | 0.1 (≈ 0.189 µM) | 0.2 (≈ 0.378 µM) | 100 (≈ 189 µM) | 3.13 (≈ 5.91 µM) | 0.05 (≈ 0.0944 µM) | 0.05 (≈ 0.0944 µM) | 0.2 (≈ 0.378 µM) | 0.1 (≈ 0.189 µM) | 0.2 (≈ 0.378 µM) | 0.1 (≈ 0.189 µM) | 0.05 (≈ 0.0944 µM) | 0.1 (≈ 0.189 µM) | 0.2 (≈ 0.378 µM) | 0.1 (≈ 0.189 µM) | 0.05 (≈ 0.0944 µM) | 0.1 (≈ 0.189 µM) | 12.5 (≈ 23.6 µM) | 0.39 (≈ 0.736 µM) | 12.5 (≈ 23.6 µM) | 0.05 (≈ 0.0944 µM) | MIC (P. aeruginosa NCTC 10490): 1.56 µg/mL (≈ 2.95 µM); MIC (P. aeruginosa AKR17): > 100 µg/mL; MIC (P. cepacia CN 9113): > 100 µg/mL; MIC (A. faecalis ATCC 3750): 1.56 µg/mL (≈ 2.95 µM); MIC (A. calcoaceticos T59): 3.13 µg/mL (≈ 5.91 µM); MIC50 (clinically isolated MRSA; concentration inhibiting growth of 50% of 47 clinically isolated MRSA strains): 2.92 µg/mL (≈ 5.51 µM); MIC90 (clinically isolated MRSA; concentration inhibiting growth of 90% of 47 clinically isolated MRSA strains): 17.4 µg/mL (≈ 32.8 µM)
Nc1nc(/C(=N/O)C(=O)N[C@@H]2C(=O)N3C(C(=O)[O-])=C(/C=C/C[n+]4cccc(-c5csc(N)n5)c4)CS[C@H]23)cs1 [Compound 12, 7β-[2-(2-aminothiazol-4-yl)-2-syn-hydroxyiminoacetamido]-3-[(E)-3-[3-(2-aminothiazol-4-yl)pyridinio]-1-propenyl]-3-cephem-4-carboxylate] | 0.1 (≈ 0.171 µM) | 0.1 (≈ 0.171 µM) | 25 (≈ 42.8 µM) | 1.56 (≈ 2.67 µM) | 0.05 (≈ 0.0855 µM) | 0.05 (≈ 0.0855 µM) | 0.2 (≈ 0.342 µM) | 0.05 (≈ 0.0855 µM) | 0.2 (≈ 0.342 µM) | 0.1 (≈ 0.171 µM) | 0.05 (≈ 0.0855 µM) | 0.1 (≈ 0.171 µM) | 0.1 (≈ 0.171 µM) | 0.05 (≈ 0.0855 µM) | 0.025 (≈ 0.0428 µM) | 0.1 (≈ 0.171 µM) | 12.5 (≈ 21.4 µM) | 0.39 (≈ 0.667 µM) | 6.25 (≈ 10.7 µM) | 0.05 (≈ 0.0855 µM) | MIC (P. aeruginosa NCTC 10490): 3.13 µg/mL (≈ 5.35 µM); MIC (P. aeruginosa AKR17): > 100 µg/mL; MIC (P. cepacia CN 9113): > 100 µg/mL; MIC (A. faecalis ATCC 3750): 1.56 µg/mL (≈ 2.67 µM); MIC (A. calcoaceticos T59): 12.5 µg/mL (≈ 21.4 µM)
